Measurements as given in patent US20260069584A1, “METHODS OF TREATING CHRONIC MYELOID LEUKEMIA USING THE TYROSINE KINASE INHIBITOR VODOBATINIB” (Sun Pharma Advanced Research Company Ltd., priority 2022, published 2026).
Like-named read-outs stand apart in the source and are kept apart here.

How the values were obtained:
[1] = SAD study in healthy male volunteers: safety and tolerability; type: in vivo, human; conditions: single-dose 6 mg, 12 mg and 24 mg
Description: (§1) Initially in the single ascending dose (SAD) study the safety, tolerability, and pharmacokinetics of the compound of Formula I at 6 mg, 12 mg, and 24 mg doses in healthy human male volunteers were evaluated. In this study, the healthy male volunteers within the mean age group of 28.7-35 years were orally administered an investigational medicinal product (IMP) or a placebo after an overnight fast (of at least 8 hours). The IMP used in this study was a hard gelatin capsule comprising the compound of Formula I of varying sizes containing either 6 mg or 24 mg of the compound of Formula I and the excipients. For the 12 mg dose, two capsules of 6 mg were used. The placebo formulation containing the excipients matched the compound of Formula I capsules in shape, size, and color. […] The median time of maximum concentration (Tmax: 2.5-3 hours, across dose range) was independent of the dose level. Dose-related increases in exposure (AUC and Cmax) were observed. […] The inter-subject variability, for the PK parameters, was generally higher in the 12 mg dose group when compared with that in the 6 mg and 24 mg dose groups (Table 07, and FIG. 1)
There were no clinically significant changes in laboratory parameters, and no clinically significant changes in vital signs or electrocardiogram were recorded for any subject.

[2] = Single ascending dose (SAD) study in healthy male volunteers: pharmacokinetics; type: in vivo, human; conditions: for Dose proportionality, Slope Estimate: 6 to 24 mg, n 18, power model; for Dose proportionality, Coefficient of determination / Dose proportionality, Intercept Estimate: n 18
Description: as §1
Referring to FIG. 1, The dose proportionality assessment using ANCOVA was assessed in the PK analysis set. […] The estimates for the slope for all exposure parameters were between 0.9833 and 1.016.

[3] = in vivo; type: in vivo; conditions: 14-day study
[4] = male, human, plasma, oral, 6 mg (N = 6), mean
[5] = male, human, plasma, oral, 12 mg (N = 6), mean
[6] = male, human, plasma, oral, 24 mg (N = 6), mean

In the case of `Cc1ccc(C(=O)NNC(=O)c2c(C)cccc2Cl)cc1C#Cc1cnc2ccccc2c1` [compound of Formula I, N′-(2-chloro-6-methylbenzoyl)-4-methyl-3-[2-(3-quinolyl)ethynyl]-benzohydrazide], the “withdrawal criteria based on QTcF prolongation or safety laboratory tests” value [1] is reported as “No subject reached the subject withdrawal criteria”, the safety and tolerability ([1]; healthy subjects) is reported as “safe and well tolerated” and the CL/F ([2]; 6 mg (N = 6), geometric mean) is reported as 3.708 L/h. For the same molecule, the “AUC(0-inf)/D” value ([2]; 6 mg (N = 6), mean) was 289 [ng/mL × hour]/mg, the CL/F ([2]; 12 mg (N = 6), geometric mean) was 4.956 L/h and the “AUC(0-inf)/D” value ([2]; 12 mg (N = 6), mean) was 230.3 [ng/mL × hour]/mg. For the same molecule, the Tmax ([2]; 12 mg (N = 6), median) was 3 h, the CL/F ([2]; 24 mg (N = 6), geometric mean) was 3.8 L/h and the “AUC(0-inf)/D” value ([2]; 24 mg (N = 6), mean) was 274.3 [ng/mL × hour]/mg. For the same molecule, the Tmax ([2]; 24 mg (N = 6), median) was 2.75 h, the “Dose proportionality, Slope Estimate” value ([2]; AUC(0-inf) (ng*h/mL)) was 0.9833 and the “Dose proportionality, Coefficient of determination” value (shortened to “Dose proportionality, Coefficient”) ([2]; AUC(0-inf) (ng*h/mL)) was 0.6145. For the same molecule, the “Dose proportionality, Intercept Estimate” value ([2]; AUC(0-inf) (ng*h/mL)) was 5.534, the “Dose proportionality, Slope Estimate” value ([2]; AUC(0-last) (ng*h/mL)) was 1.016 and the “Dose proportionality, Coefficient” value ([2]; AUC(0-last) (ng*h/mL)) was 0.6425. For the same molecule, the “Dose proportionality, Intercept Estimate” value ([2]; AUC(0-last) (ng*h/mL)) was 5.389, the “Dose proportionality, Slope Estimate” value ([2]; Cmax (ng/mL)) was 0.9884 and the “Dose proportionality, Coefficient” value ([2]; Cmax (ng/mL)) was 0.6832. The “Dose proportionality, Intercept Estimate” value ([2]; Cmax (ng/mL)) was 3.470, the “apparent systemic clearance (CL/F)” value ([2]; across dose range 6, 12, 24 mg) was 3.708 to 4.956 L/h and the Vd/F ([2]; male, human, plasma, oral, 6 mg, 6 mg (N = 6), geometric mean, read-out: Vz/F) was 91.6 L. The half-life ([2]; male, human, plasma, oral, 6 mg, 6 mg (N = 6), geometric mean, read-out: t1/2 (converted)) was 17.1 h, the AUC(0-t) ([2]; male, human, plasma, oral, 6 mg, 6 mg (N = 6), mean, read-out: AUC(0-24)) was 1140 ng·h/mL and the AUC(0-t) ([2]; male, human, plasma, oral, 6 mg, 6 mg (N = 6), mean, read-out: AUC(0-last)) was 1570 ng·h/mL. The Vd/F ([2]; male, human, plasma, oral, 12 mg, 12 mg (N = 6), geometric mean, read-out: Vz/F) was 90.8 L, the half-life ([2]; male, human, plasma, oral, 12 mg, 12 mg (N = 6), geometric mean, read-out: t1/2 (converted)) was 12.7 h and the AUC(0-t) ([2]; male, human, plasma, oral, 12 mg, 12 mg (N = 6), mean, read-out: AUC(0-24)) was 1920 ng·h/mL. It also gave an AUC(0-t) ([2]; male, human, plasma, oral, 12 mg, 12 mg (N = 6), mean, read-out: AUC(0-last)) of 2640 ng·h/mL, a Vd/F ([2]; male, human, plasma, oral, 24 mg, 24 mg (N = 6), geometric mean, read-out: Vz/F) of 69.8 L and a half-life ([2]; male, human, plasma, oral, 24 mg, 24 mg (N = 6), geometric mean, read-out: t1/2 (converted)) of 12.7 h. The AUC(0-t) ([2]; male, human, plasma, oral, 24 mg, 24 mg (N = 6), mean, read-out: AUC(0-24)) was 4760 ng·h/mL, the AUC(0-t) ([2]; male, human, plasma, oral, 24 mg, 24 mg (N = 6), mean, read-out: AUC(0-last)) was 6240 ng·h/mL and the AUC(0-t) ([2]; male, human, plasma, oral, 24 mg, SAD study, read-out: maximum value of AUC(0-24)) was 6080 ng·h/mL. It also gave a half-life ([2]; male, human, plasma, oral, 24 mg, across dose range 6, 12, 24 mg, read-out: apparent terminal half-life (t1/2)) of 12.7 to 17.1 h, a Vd/F ([2]; male, human, plasma, oral, 24 mg, across dose range 6, 12, 24 mg, read-out: apparent volume of distribution (Vz/F)) of 69.8 to 91.6 L and an AUC(0-t) ([2]; male, human, plasma, oral, 24 mg, highest dose level (24 mg), read-out: mean AUC(0-24)) of 4760 ng·h/mL. It also gave an AUC(0-inf) [2, 4] of 1740 ng·h/mL, a Cmax [2, 4] of 234 ng/mL and a Tmax ([2]; male, human, plasma, oral, 6 mg (N = 6), median, read-out: tmax) of 2.5 h. For the same molecule, the AUC(0-inf) [2, 5] was 2770 ng·h/mL, the Cmax [2, 5] was 285 ng/mL and the AUC(0-inf) [2, 6] was 6580 ng·h/mL. The Cmax [2, 6] was 909 ng/mL, the Tmax ([2]; male, human, plasma, oral, across dose range 6, 12, 24 mg, read-out: median time of maximum concentration (Tmax)) was 2.5 to 3 h and the “absorption after oral administration” value ([2]; single dose 6 mg, 12 mg, or 24 mg) was “rapidly absorbed”. For the same molecule, the “dose up to which no mortality or severe clinical signs were observed” value [3] was at most 625 mg/kg/day and the NOAEL at 14 days ([3]; dog, in vivo) was 83 mg/kg/day.
